{"source": "patent US8778303B2", "about": "“99mTc-labeled 19 amino acid containing peptide for use as phosphatidylethanolamine binding molecular probe and radiopharmaceutical” (The Medical College of Wisconsin, Inc., priority 2008, dated 2014)", "key": {"[1]": {"experiment": "Stability of purified radiotracer in aqueous solution", "assay_type": "physicochemical", "conditions": "once purified", "experimental": "HPLC method 2. Jupiter C18 column (90 Å pore size, 250×4.6 mm) was used with a buffered mobile phase system consisting of phosphate buffer (10 mM sodium phosphate, pH 6.7) and acetonitrile at a flow rate of 1.0 ml/min at room temperature. A baseline of 5 min at 90% buffer A (phosphate buffer, pH6.7) and 10% buffer B (acetonitrile) was followed by a linear gradient to 10% buffer A and 90% buffer B in 30 min. The level of radioactivity in the HPLC elute was monitored by gamma counting at an energy window of 140±15 keV.\nHYNIC-Duramycin was labeled with ^99mTc using the tricine-phosphine co-ligand system. Specifically, 15 μg of HYNIC-Duramycin was mixed with 40 mg of tricine, 1 mg of TPPTS and 20 μg SnCl2 in 0.8 ml at pH 5.3. The labeling was initiated with the addition of about 1 mCi of ^99mTc. The incubation was allowed to proceed for 40 min at room temperature. The final radiopharmaceutical, ^99mTc-HYNIC-Duramycin, was analyzed and purified using HPLC method 2. After purification, acetonitrile was removed by evaporation under nitrogen, and ^99mTc-HYNIC-Duramycin was reconstituted in saline for usage. ^99mTc-HYNIC-Duramycin^1 was synthesized in the same fashion. For stability tests, cysteine challenge was carried out at a cysteine-to-^99mTc-Duramycin ratio of 100 to 1, in 0.01 mM phosphate buffer (pH 6.8) for 2 hr at room temperature. The sample was analyzed with radioHPLC (method 2)."}, "[2]": {"experiment": "Competition assay with phospholipid liposomes on apoptotic cells", "assay_type": "binding", "conditions": "for binding to apoptotic cells in the presence of PtdE-containing liposomes: increasing concentration of PtdC/PtdE liposomes", "experimental": "Preparation of liposomes. Liposomes with the following chemical compositions were made: PtdC (100%), PtdC/PtdE (50/50, w/w), PtdC/PtdS (50/50, w/w), PtdC/PtdG (50/50, w/w). Solid phospholipids were weighed to contain 2 mg for each type of lipids in separate glass test tubes (10×140 mm). One ml of chloroform was used to completely dissolve the phospholipid in each tube. The chloroform was evaporated under a stream of nitrogen where the dried phospholipids formed a thin film of residue on the test tube wall. The samples were thoroughly dried under vacuum overnight. The next morning each sample was re-suspended in 2 ml of HEPES buffer (15 mM HEPES, 120 mM NaCl, pH 7.4) at 45° C. Each suspension was sonicated for 2-5 min at 15 sec each cycle until the mixture turned into an opaque appearance, which indicated the formation of multi-laminar liposomes. The samples were kept on ice until use.\nCompetition assay. The retention of the binding activity was determined using a competition assay in the presence of PtdE-containing liposomes. PtdC/PtdE liposomes was prepared as described herein. Binding assay was carried out in triplicate in the presence of increasing amount of PtdC/PtdE liposomes, from 1 nM to 10 μM final concentration in 4-fold increments. The radioactivity bound to the cell pellet was determined by gamma counting as described in the precious paragraph. The assay was repeated using liposomes containing other species of closely related phospholipids, including PtdC, PtdG, and PtdS."}, "[3]": {"experimental": "Blood half-life and pharmacokinetic studies. The animal protocol used was approved by the Institutional Animal Care and Use Committee under the NIH guideline. Healthy Sprague Dawley rats were injected with radiolabeled Duramycin (2.3 nmole) via the tail vein. At each designated time point, including 0, 1, 5, 15, 30, and 60 min, 50 μl of blood was withdrawn from a pre-installed femoral artery catheter and collected in heparinized tubes. The blood sample was centrifuged at 5000 g, and the radioactivity in the cellular and plasma fractions was measured separately by direct gamma counting using an energy window of 140±15 keV. The data output included total blood activity with time, and the activity associated with blood cells and the plasma, respectively. The blood half-life measurement was conducted in triplets. To analyze the pharmacokinetics of the radiopharmaceutical, 10 μl of the plasma or urine sample was analyzed using HPLC method 2 which involves the physical separation of molecules based upon the matrix-solvent interactions."}, "[4]": {"test_system": "acute cardiac cell death", "experiment": "In vivo imaging of acute cardiac cell death, rat model of ischemia and reperfusion"}, "[5]": {"test_system": "area-at-risk", "experiment": "Spatial and temporal uptake in the area-at-risk after myocardial ischemia and reperfusion", "assay_type": "in vivo, rat"}, "[6]": {"test_system": "AMI", "experiment": "Window of detection for AMI, planar imaging and autoradiography", "assay_type": "in vivo, rat"}, "[7]": {"test_system": "breast tumor", "experiment": "Imaging in chemical-induced breast cancer model with doxorubicin treatment", "assay_type": "in vivo, rat", "source_text": "In an experimental example using a chemical-induced breast cancer model in rats, breast tumors were allowed to grow to palpable size prior to doxorubicin treatment (see arrow, FIG. 9B)."}, "[8]": {"test_system": "acute cardiac cell death", "experiment": "Imaging of cardiac cell death after coronary ischemia with or without reperfusion (Example 2)", "assay_type": "in vivo, rat", "experimental": "Cardiology applications include imaging cardiac cell death in heart diseases, such as acute myocardial infarction, myocarditis, myocardial ischemia, and heart transplant rejection. In an experimental example using a rat model, 99mTc-Duramycin was injected into a control rat (FIG. 10A) and a rat in which coronary ischemia was induced, followed by reperfusion (FIG. 10B). Both rats were subsequently imaged. […] A similar experiment was performed using a rat model where induced coronary ischemia was not followed by reperfusion."}, "[9]": {"test_system": "heart transplant rejection", "experiment": "Imaging in rat model of heart transplant rejection", "assay_type": "in vivo", "conditions": "days four and six post transplantation", "experimental": "In another experimental example, using a rat model of heart transplant rejection, rats were given heart allograft transplants, and other rats were given heart isograft transplants. Four and six days after heart tissue transplantation, the rats were injected with 99mTc-Duramycin and subsequently imaged."}, "[10]": {"test_system": "stroke", "conditions": "in vivo"}, "[11]": {"target": "rat serum albumin (Rattus norvegicus, UniProt P02770)", "sequence (P02770 25-608)": "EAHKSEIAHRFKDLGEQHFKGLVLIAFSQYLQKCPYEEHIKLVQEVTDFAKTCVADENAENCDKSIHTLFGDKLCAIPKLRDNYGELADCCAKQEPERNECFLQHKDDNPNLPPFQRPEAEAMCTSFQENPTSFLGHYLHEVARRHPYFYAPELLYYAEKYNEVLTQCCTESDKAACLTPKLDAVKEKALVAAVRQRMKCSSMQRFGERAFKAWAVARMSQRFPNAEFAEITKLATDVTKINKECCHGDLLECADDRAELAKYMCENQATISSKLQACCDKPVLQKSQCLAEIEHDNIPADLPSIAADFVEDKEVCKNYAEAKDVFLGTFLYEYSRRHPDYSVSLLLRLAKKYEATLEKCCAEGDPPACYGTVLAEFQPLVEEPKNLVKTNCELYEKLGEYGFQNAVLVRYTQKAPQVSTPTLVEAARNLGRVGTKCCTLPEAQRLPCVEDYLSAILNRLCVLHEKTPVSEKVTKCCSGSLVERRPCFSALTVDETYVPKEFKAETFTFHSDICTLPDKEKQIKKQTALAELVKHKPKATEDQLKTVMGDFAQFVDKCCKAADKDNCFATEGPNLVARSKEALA", "conditions": "RadioHPLC"}, "[12]": {"conditions": "dissected heart tissues, 60 min after injection"}}, "note": "Entries after “also recorded” stand apart in the source; their conditions may differ.", "data": [{"smiles": "CC(C)=NNc1ccc(C(=O)NCCCC[C@@H]2NC(=O)[C@@H](N)CS[C@@H](C)[C@H]3NC(=O)[C@H](CC(N)=O)NC(=O)CNC(=O)[C@H]([C@@H](O)C(=O)O)NC(=O)[C@@H]4CSC[C@@H](NC(=O)[C@H](CCC(N)=O)NC2=O)C(=O)N[C@H]2CS[C@@H](C)[C@@H](NC(=O)[C@H](Cc5ccccc5)NC(=O)[C@@H]5CCCN5C(=O)CNC(=O)[C@H](Cc5ccccc5)NC(=O)[C@H](CNCCCC[C@@H](C(=O)O)NC3=O)NC2=O)C(=O)N[C@@H](Cc2ccccc2)C(=O)N[C@@H](C(C)C)C(=O)N4)cn1", "note": "[^99mTc-HYNIC-Duramycin, metal not drawn]", "values": [{"measurement": "time with no significant level of detached 99mTc detected", "setting": "[1]", "result": "at least 24 hrs"}, {"measurement": "binding to apoptotic cells in the presence of liposomes of other phospholipids", "setting": "[2]; PtdC, PtdG or PtdS liposomes", "result": "unable to competitively reduce"}, {"measurement": "binding to apoptotic cells in the presence of PtdE-containing liposomes", "setting": "[2]", "result": "competitively abolished; also recorded: exclusively and competitively diminished"}, {"measurement": "binding to apoptotic cells in the presence of PtdE-containing liposomes", "setting": "[2]; listed as 99mTc-HYNIC-Duramycin^1", "result": "not competitively diminished"}, {"measurement": "radio-HPLC analysis of plasma samples", "setting": "[3]; after intravenous injection", "result": "majority of the injected radioactivity remained as the parent"}, {"measurement": "radioactivity in the blood associated with the plasma fraction", "setting": "[3]; all time points", "result": "greater than 95%"}, {"measurement": "average radioactivity at the infarct site", "setting": "[4]; at 1 hr post-injection", "result": "above 4.0 % ID/g"}, {"measurement": "infarct-to-lung ratio", "setting": "[4]; at 2 hr after injection (n=3)", "result": "4.8±0.4"}, {"measurement": "infarct-to-muscle ratio", "setting": "[4]; at 2 hr after injection (n=3)", "result": "12.2±1.3"}, {"measurement": "time after injection at which focal uptake was seen at the infarct", "setting": "[4]; dynamic images, as early as", "result": 10, "unit": "min"}, {"measurement": "average radioactivity at the infarct site", "setting": "[4]; rat, in vivo", "result": "less than 1.0 % ID/g"}, {"measurement": "retention / washout of radioactivity in the infarct", "setting": "[4]; rat, in vivo", "result": "accompanied with a washout"}, {"measurement": "time uptake in infarct tissues remained persistent without significant washout", "setting": "[5]; after injection", "result": "at least 3 hours"}, {"measurement": "time to approach plateau of uptake", "setting": "[5]; area-at-risk, after injection", "result": "≤ 10", "unit": "min"}, {"measurement": "tracer uptake in the ischemic-non-infarct myocardium", "setting": "[5]; at 180 min", "result": "2.1±0.3", "unit": "% ID"}, {"measurement": "average infarct-to-normal ratio", "setting": "[5]; [12]", "result": 31.9}, {"measurement": "average ischemic-to-normal ratio", "setting": "[5]; [12]", "result": 11.1}, {"measurement": "tracer uptake in the ischemic-non-infarct myocardium", "setting": "[5]; minimum at 60 min", "result": "1.6±0.6", "unit": "% ID/g"}, {"measurement": "tracer uptake in the ischemic-non-infarct myocardium", "setting": "[5]; peak at around 10 min post-injection", "result": "2.7±0.6", "unit": "% ID/g"}, {"measurement": "radioactivity uptake in the infarcted myocardium", "setting": "[5]; plateau by 10 min after injection", "result": "4.3±0.7", "unit": "% ID/g"}, {"measurement": "level (plateau) of uptake in the area-at-risk", "setting": "[5]; rat myocardial ischemia and reperfusion", "result": "~4", "unit": "% ID/g"}, {"measurement": "presence of radioactivity in the infarcted tissue reduced (inactivated tracer)", "setting": "[5]; rat, in vivo", "result": "~60", "unit": "%"}, {"measurement": "time of maximum radioactivity in the infarcted tissue", "setting": "[5]; rat, in vivo", "result": "about 30 min"}, {"measurement": "radioactivity uptake in the normal myocardium", "setting": "[5]; reflecting residual blood pool signal", "result": "low"}, {"measurement": "radioactivity uptake in the infarcted myocardium", "setting": "[5]; within 3 min after injection", "result": "1.8±0.4", "unit": "% ID/g"}, {"measurement": "decline of signal-to-background ratio in autoradiographs", "setting": "[6]; at 24 hr compared with 2 hr post infarction", "result": 32, "unit": "%"}, {"measurement": "decline of signal-to-background ratio in autoradiographs", "setting": "[6]; at 48 hr compared with 2 hr post infarction", "result": 43, "unit": "%"}, {"measurement": "uptake in treated breast tumor", "setting": "[7]; after a single cycle of doxorubicin", "result": "elevated"}, {"measurement": "cardiac uptake after doxorubicin", "setting": "[7]; rat, in vivo", "result": "also elevated"}, {"measurement": "imaging of acute cardiac cell death after reperfused coronary ischemia", "setting": "[8]; infarct model rat, 120 minutes after injection", "result": "can be seen"}, {"measurement": "imaging of cardiac cell death following nonreperfused coronary ischemia", "setting": "[8]; rat model", "result": "successfully imaged"}, {"measurement": "uptake in heart allografts in contrast to isografts", "setting": "[9]", "result": "Markedly elevated"}, {"measurement": "uptake in brain, rat stroke model", "setting": "[10]", "result": "Focal uptake of radioactivity is colocalized with regions of stroke"}, {"measurement": "complex formation between the tracer and albumin", "setting": "[11]", "result": "did not result in any complex formation"}]}]}
